# In US12565476B2, “2,5-disubstituted 3-methyl pyrazines and 2,5,6-trisubstituted 3-methyl pyrazines as allosteric SHP2 inhibitors” (Revolution Medicines, Inc., priority 2016, dated 2026):
# Target: SHP2 (Homo sapiens (Human), UniProt Q06124)
# Assay: SHP2 allosteric inhibition assay (DiFMUP prompt fluorescence)
# Assay type: biochemical
# Conditions: 0.2 nM SHP2 incubated with 0.5 μM Activating Peptide 1 or 2, surrogate substrate DiFMUP, compound 0.00005-10 μM
# Text: Without wishing to be bound by theory, SHP is allosterically activated through binding of bis-tyrosyl-phosphorylated peptides to its Src Homology 2 (SH2) domains. The latter activation step leads to the release of the auto-inhibitory interface of SHP2, which in turn renders the SHP2 protein tyrosine phosphatase (PTP) active and available for substrate recognition and reaction catalysis. The catalytic activity of SHP2 was monitored using the surrogate substrate DiFMUP in a prompt fluorescence assay format.
# After 30-60-minutes incubation at 25° C., the surrogate substrate DiFMUP (Invitrogen, Cat #D6567) was added to the reaction and activity was determined by a kinetic read using a microplate reader (Envision, Perkin-Elmer or Spectramax M5, Molecular Devices). The excitation and emission wavelengths were 340 nm and 450 nm, respectively. Initial rates were determined from a linear fit of the data, and the inhibitor dose response curves were analyzed using normalized IC50 regression curve fitting with control based normalization.
row,IC50 [nM],Structure (SMILES)
1,43,"Cc1nc(N2CCC3(CCC[C@H]3N)CC2)cnc1-c1cccc(Cl)c1Cl [Example 23, (R)-8-(5-(2,3-dichlorophenyl)-6-methylpyrazin-2-yl)-8-azaspiro[4.5]decan-1-amine]"
2,104,"Cc1nc(N2CCC(C)(N)CC2)cnc1-c1cccc(Cl)c1Cl [Example 24, 1-(5-(2,3-dichlorophenyl)-6-methylpyrazin-2-yl)-4-methylpiperidin-4-amine]"
3,83,"Cc1nc(N2CCC3(CCC[C@H]3N)CC2)cnc1Sc1cccc(Cl)c1Cl [Example 1, (R)-8-(5-((2,3-dichlorophenyl)thio)-6-methylpyrazin-2-yl)-8-azaspiro[4.5]decan-1-amine]"
